Each structure is given as a SMILES string. Converted amounts (≈) assume the structure as drawn.

Series [1] concerns Escherichia coli. Briefly: Antibacterial activity against Escherichia coli at 100 ug/disk after 24 hrs by agar disc-diffusion method. It counts as functional. The settings on record: read-out: IZ. Background: A growth-free zone around the sample is the usual read-out of agar diffusion tests.
Series [2] deals with Fusarium solani. As to the kind of experiment: Antifungal activity against Fusarium solani at 200 ug/disk after 48 hrs by agar disc-diffusion method. It counts as functional. The settings on record: read-out: IZ.
Series [3] has as its system A549. As to the kind of experiment: Cytotoxicity against human A549 cells upto 100 uM after 72 hrs by MTT assay in presence of 10% fetal bovine serum. It counts as functional, cell-based. For orientation: Tetrazolium dyes change colour on reduction, which living cells bring about.
Series [4] concerns Aspergillus niger. Briefly: Antifungal activity against Aspergillus niger at 100 ug/disk after 48 hrs by agar disc-diffusion method. It counts as functional. The conditions noted are these: read-out: IZ.
For series [5], the system named is Fusarium solani. Briefly: Antifungal activity against Fusarium solani at 100 ug/disk after 48 hrs by agar disc-diffusion method. It counts as functional. The conditions noted are these: read-out: IZ.
Series [6] concerns Fusarium solani. Briefly: Antifungal activity against Fusarium solani after 48 hrs by microdilution susceptibility method. It counts as functional. Background: Broth dilution looks for growth in wells or tubes with falling amounts of substance.
In series [7] the test system is Staphylococcus aureus. As to the kind of experiment: Antibacterial activity against Staphylococcus aureus at 200 ug/disk after 24 hrs by agar disc-diffusion method. It counts as functional. The conditions noted are these: read-out: IZ.
Series [8] is described as follows: Cytotoxicity against mink CCL64 cells upto 100 uM after 72 hrs by MTT assay in presence of 0.2% fetal bovine serum. It counts as cell-based. The settings on record: neovison vison, ccl64, 72 h.
In series [9] the test system is Curvularia lunata. As to the kind of experiment: Antifungal activity against Curvularia lunata at 200 ug/disk after 48 hrs by agar disc-diffusion method. It counts as functional. The settings on record: read-out: IZ.
Series [10] relates to Escherichia coli. As to the kind of experiment: Antibacterial activity against Escherichia coli after 24 hrs by microdilution susceptibility method. It counts as functional.
Series [11] deals with Klebsiella pneumoniae. As to the kind of experiment: Antibacterial activity against Klebsiella pneumoniae after […] by microdilution susceptibility method. It counts as functional.
In series [12] the test system is Aspergillus niger. As to the kind of experiment: Antifungal activity against Aspergillus niger after 48 hrs by microdilution susceptibility method. It counts as functional.
For series [13], the system named is Klebsiella pneumoniae. As to the kind of experiment: Antibacterial activity against Klebsiella pneumoniae at 100 ug/disk after 24 hrs by agar disc-diffusion method. It counts as functional. The settings on record: read-out: IZ.
For series [14], the system named is Curvularia lunata. As to the kind of experiment: Antifungal activity against Curvularia lunata at 100 ug/disk after 48 hrs by agar disc-diffusion method. It counts as functional. The settings on record: read-out: IZ.
Series [15] concerns Curvularia lunata. As to the kind of experiment: Antifungal activity against Curvularia lunata after 48 hrs by microdilution susceptibility method. It counts as functional.
Series [16] relates to Bacillus subtilis. As to the kind of experiment: Antibacterial activity against Bacillus subtilis at 200 ug/disk after 24 hrs by agar disc-diffusion method. It counts as functional. The conditions noted are these: read-out: IZ.
Series [17] deals with Escherichia coli. Briefly: Antibacterial activity against Escherichia coli at 200 ug/disk after 24 hrs by agar disc-diffusion method. It counts as functional. The conditions noted are these: read-out: IZ.
The test system of series [18] is Bacillus subtilis. As to the kind of experiment: Antibacterial activity against Bacillus subtilis after 24 hrs by microdilution susceptibility method. It counts as functional.
Series [19] concerns Klebsiella pneumoniae. As to the kind of experiment: Antibacterial activity against Klebsiella pneumoniae at 200 ug/disk after 24 hrs by agar disc-diffusion method. The conditions noted are these: read-out: IZ. It counts as functional.
For series [20], the system named is Staphylococcus aureus. As to the kind of experiment: Antibacterial activity against Staphylococcus aureus after 24 hrs by microdilution susceptibility method. It counts as functional.
The test system of series [21] is Staphylococcus aureus. Briefly: Antibacterial activity against Staphylococcus aureus at 100 ug/disk after 24 hrs by agar disc-diffusion method. The conditions noted are these: read-out: IZ. It counts as functional.
The subject of series [22] is Aspergillus niger. Briefly: Antifungal activity against Aspergillus niger at 200 ug/disk after 48 hrs by agar disc-diffusion method. It counts as functional. The settings on record: read-out: IZ.
The test system of series [23] is Bacillus subtilis. As to the kind of experiment: Antibacterial activity against Bacillus subtilis at 100 ug/disk after 24 hrs by agar disc-diffusion method. The settings on record: read-out: IZ. It counts as functional.

Take `Nn1c(S)nnc1CS(=O)(=O)c1c[nH]cc1S(=O)(=O)c1ccccc1`: the zone of inhibition at 100 µg/disc turned out to be 22 mm in [1]; 30 mm in series [4]; 33 mm in [5]; 21 mm in series [13]; 34 mm in series [14]; 28 mm in series [21]. Besides, in [23], the zone of inhibition at 100 µg/disc was found to be 31 mm. The zone of inhibition at 200 µg/disc in series [2] was 36 mm; in [7], 32 mm; in [9], 36 mm; in series [16], 35 mm; in [17] it was 26 mm; in series [19], 22 mm. For the same molecule, the zone of inhibition at 200 µg/disc in [22] came out at 34 mm. Also, the Activity entry in series [3] is “Not toxic”; in series [8] it was “Non-toxic”. The MIC in series [6], in series [10], in [11], in series [12], in series [15] and in [18] was 100 µg/mL (≈ 250 µM) throughout. The lowest concentration to inhibit growth in series [20] (MIC) was 25 µg/mL (≈ 62.6 µM).

Source of the values: ChEMBL document CHEMBL1158337, “Synthesis and bioassay of a new class of heterocycles pyrrolyl oxadiazoles/thiadiazoles/triazoles” (Eur J Med Chem, 2009).
